Columns and labels:
[1] = target: T1, human sphingosine-1-phosphate receptor 1 (S1P1) (Homo sapiens, UniProt P21453); assay: Inhibition of cAMP production (HTRF cAMP HiRange), S1P1 CHO-K1 cells; assay type: cell-based; conditions: for Emax: CHO-K1, efficacy normalized to maximum efficacy of fingolimod, read-out: hS1P1 CAMP SPAN; for EC50: read-out: hS1P1 CAMP pEC50 (converted)
Summary of the method: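 Intracellular cAMP changes read by TR-FRET (HTRF HiRange, 1 h room temperature) after 30 min compound exposure at 37 °C. Cells: overnight-plated CHO-K1 stably expressing tagged human S1P1 with EA-β-arrestin2. Responses normalized to fingolimod.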
Target sequence in this assay (P21453 whole entry): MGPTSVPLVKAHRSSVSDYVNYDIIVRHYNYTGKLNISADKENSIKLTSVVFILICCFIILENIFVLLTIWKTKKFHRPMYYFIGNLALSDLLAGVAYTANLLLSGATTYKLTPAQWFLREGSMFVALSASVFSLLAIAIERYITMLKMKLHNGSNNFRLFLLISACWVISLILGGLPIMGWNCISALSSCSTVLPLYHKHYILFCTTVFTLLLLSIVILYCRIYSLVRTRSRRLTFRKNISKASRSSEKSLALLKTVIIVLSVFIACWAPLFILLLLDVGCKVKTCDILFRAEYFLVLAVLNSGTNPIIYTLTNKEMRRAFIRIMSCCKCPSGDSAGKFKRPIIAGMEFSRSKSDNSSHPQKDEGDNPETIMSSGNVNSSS

[2] = target: T1, human sphingosine-1-phosphate receptor 1 (S1P1); assay: β-Arrestin2 recruitment assay (PathHunter), S1P1 CHO-K1 cells; assay type: cell-based; conditions: for Emax: efficacy normalized to maximum efficacy of fingolimod, read-out: hS1P1 B-arrestin2 SPAN; for EC50: β-arrestin2 recruitment, read-out: hS1P1 B-arrestin2 pEC50 (converted)
Summary of the method: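 Agonist-driven β-arrestin2 recruitment measured by β-galactosidase complementation after 60 min compound exposure at 37 °C and 1 h detection at room temperature. Cells: stable CHO-K1 line expressing tagged human S1P1 with EA-β-arrestin2, plated the night before. Data expressed relative to fingolimod.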
Target sequence in this assay (P21453 whole entry): as above
Target sequence in this assay (P32121 whole entry partner): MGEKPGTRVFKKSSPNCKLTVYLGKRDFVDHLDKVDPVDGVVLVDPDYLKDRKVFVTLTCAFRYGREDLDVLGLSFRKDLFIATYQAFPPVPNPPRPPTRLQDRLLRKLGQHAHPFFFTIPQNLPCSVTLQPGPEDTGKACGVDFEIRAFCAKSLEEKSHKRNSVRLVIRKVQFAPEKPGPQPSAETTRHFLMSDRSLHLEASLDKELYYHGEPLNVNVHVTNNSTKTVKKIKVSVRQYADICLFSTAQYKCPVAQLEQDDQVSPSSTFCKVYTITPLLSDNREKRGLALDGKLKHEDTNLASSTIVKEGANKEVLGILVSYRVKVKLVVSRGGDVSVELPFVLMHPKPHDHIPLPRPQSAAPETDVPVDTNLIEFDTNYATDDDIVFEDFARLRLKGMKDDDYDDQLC

[3] = inhibition of cAMP production, S1P1
[4] = inhibition of cAMP production, potency
[5] = CHO-K1, β-arrestin2 recruitment

| Compound | Emax [1] [%] | EC50 [1, 3] [nM] | Emax ([2]; CHO-K1) [%] | EC50 ([2]; S1P1) [nM] | Emax ([1]; inhibition of cAMP production) [%] | EC50 [1, 4] [nM] | Emax [2, 5] [%] | EC50 ([2]; potency) [nM] |
| --- | --- | --- | --- | --- | --- | --- | --- | --- |
| N#Cc1cc(-c2nnc(-c3ccc4[nH]c(=O)oc4c3)o2)ccc1NCCF [Compound 487, 2-[(2-fluoroethyl)amino]-5-[5-(2-oxo-2,3-dihydro-1,3-benzoxazol-6-yl)-1,3,4-oxadiazol-2-yl]benzonitrile] | > 75 | > 316 | > 75 | < 10000 | – | – | – | – |
| CC(C)Nc1ccc(-c2nnc(-c3ccc4ncn(C)c4c3)o2)cc1C#N [Compound 579, 5-[5-(1-methyl-1H-1,3-benzodiazol-6-yl)-1,3,4-oxadiazol-2-yl]-2-[(propan-2-yl)amino]benzonitrile] | > 75 | < 316 | > 75 | < 10000 | – | – | – | – |
| COc1ccccc1-c1noc(-c2ccc3c(c2)NC(=O)CN3)n1 [Compound 614, 7-[3-(2-methoxyphenyl)-1,2,4-oxadiazol-5-yl]-1,2,3,4-tetrahydro-quinoxalin-2-one] | > 75 | > 316 | < 75 | > 10000 | – | – | – | – |
| c1ccc(-c2noc(-c3ccc4[nH]nnc4c3)n2)cc1 [Compound 113, 5-(3-phenyl-1,2,4-oxadiazol-5-yl)-1H-1,2,3-benzotriazole] | – | – | – | – | < 75 | > 316 | < 75 | > 10000 |
| COc1ccccc1-c1cnc(-c2ccc3c(c2)nnn3C(C)C)nc1 [Compound 565, 1-isopropyl-5-(5-(2-methoxyphenyl)pyrimidin-2-yl)-1H-benzo[d][1,2,3]triazole] | > 75 | < 316 | > 75 | < 10000 | – | – | – | – |
| CCC1(CC)CC(=O)c2cc(-c3nc(-c4cccc(Cl)c4)no3)ccc2O1 [Compound 261, 6-[3-(3-chlorophenyl)-1,2,4-oxadiazol-5-yl]-2,2-diethyl-chroman-4-one] | – | – | – | – | > 75 | > 316 | < 75 | < 10000 |
| Cc1cc(C)cc(-c2noc(-c3ccc4c(c3)nnn4C3CCOCC3)n2)c1 [Compound 93, 5-[3-(3,5-dimethyl-phenyl)-1,2,4-oxadiazol-5-yl]-1-(oxan-4-yl)-1H-1,2,3-benzotriazole] | – | – | – | – | < 75 | > 316 | > 75 | > 10000 |
| N#Cc1cc(-c2nc(-c3ccc4c(c3)CCC(=O)N4)no2)ccc1NCC(F)(F)F [Compound 472, 5-[3-(2-oxo-1,2,3,4-tetrahydroquinolin-6-yl)-1,2,4-oxadiazol-5-yl]-2-[(2,2,2-trifluoro-ethyl)amino]benzonitrile] | > 75 | < 316 | > 75 | < 10000 | – | – | – | – |
| CCC1(CC)CC(=O)c2cc(-c3nc(-c4cncc(C(F)(F)F)c4)no3)ccc2O1 [Compound 557, 2,2-diethyl-6-(3-(5-(trifluoromethyl)pyridin-3-yl)-1,2,4-oxadiazol-5-yl)chroman-4-one] | > 75 | > 316 | < 75 | < 10000 | – | – | – | – |
| CC1CC(=O)c2ccc(-c3nc(-c4ccncc4)no3)cc2O1 (stereo not shown) [Compound 536, 2-methyl-7-[3-(pyridin-4-yl)-1,2,4-oxadiazol-5-yl]-3,4-dihydro-2H-1-benzopyran-4-one] | < 75 | > 316 | < 75 | < 10000 | – | – | – | – |
| Cc1ccccc1C(C)c1noc(-c2ccc3c(c2)nnn3CC(C)C)n1 (stereo not shown) [Compound 154, 5-{3-[1-(2-methyl-phenyl)ethyl]-1,2,4-oxadiazol-5-yl}-1-(2-methylpropyl)-1H-1,2,3-benzotriazole] | – | – | – | – | < 75 | > 316 | < 75 | > 10000 |
| CCC1(CC)CC(=O)c2cc(-c3nc(-c4ccc(F)nc4)no3)ccc2O1 [Compound 546, 2,2-diethyl-6-(3-(6-fluoropyridin-3-yl)-1,2,4-oxadiazol-5-yl)chroman-4-one] | < 75 | > 316 | < 75 | > 10000 | – | – | – | – |
| CC(C)Nc1ccc(-c2nc(-c3ccc4c(c3)NC(=O)CC4)no2)cc1C#N [Compound 435, 2-(isopropylamino)-5-(3-(2-oxo-1,2,3,4-tetrahydroquinolin-7-yl)-1,2,4-oxadiazol-5-yl)benzonitrile] | > 75 | < 316 | > 75 | < 10000 | – | – | – | – |
| Cc1cc(-c2nc(-c3ccc4c(c3)nnn4C(C)C)no2)cnc1C [Compound 201, 5-(5,6-dimethyl-pyridin-3-yl)-3-(1-isopropyl-1H-benzo[d][1,2,3]triazol-5-yl)-1,2,4-oxadiazole] | – | – | – | – | < 75 | > 316 | > 75 | > 10000 |
| CC(C)(CO)n1nnc2cc(-c3noc(-c4ccc5nc[nH]c5c4)n3)ccc21 [Compound 642, 2-(5-(5-(1H-benzo[d]imidazol-6-yl)-1,2,4-oxadiazol-3-yl)-1H-benzo[d][1,2,3]triazol-1-yl)-2-methylpropan-1-ol] | < 75 | > 316 | < 75 | – | – | – | – | – |
| Cc1ccccc1-c1nc(-c2ccc3c(c2)nnn3C2CCCC2)no1 [Compound 162, 3-(1-cyclopentyl-1H-benzo[d][1,2,3]triazol-5-yl)-5-(o-tolyl)-1,2,4-oxadiazole] | – | – | – | – | > 75 | > 316 | > 75 | < 10000 |
| Brc1ccccc1-c1nc(-c2ccc3c(c2)nnn3C2CCCC2)no1 [Compound 40, 5-(2-bromophenyl)-3-(1-cyclopentyl-1H-benzo[d][1,2,3]triazol-5-yl)-1,2,4-oxadiazole] | – | – | – | – | > 75 | < 316 | > 75 | < 10000 |
| CC(C)n1nnc2cc(-c3ncc(-c4ccccc4Br)s3)ccc21 [Compound 220, 5-(2-bromophenyl)-2-(1-isopropylbenzo-triazol-5-yl)thiazole] | – | – | – | – | < 75 | > 316 | < 75 | > 10000 |
| c1ccc(-c2noc(-c3ccc4c(c3)nnn4C3CCCC3)n2)cc1 [Compound 7, 1-cyclopentyl-5-(3-phenyl-1,2,4-oxadiazol-5-yl)-1H-1,2,3-benzotriazole] | – | – | – | – | > 75 | > 316 | > 75 | > 10000 |
| CC(C)n1ccc2cc(-c3nsc(-c4ccccc4F)n3)ccc21 [Compound 380, 5-[5-(2-fluorophenyl)-1,2,4-thiadiazol-3-yl]-1-(propan-2-yl)-1H-indole] | < 75 | > 316 | < 75 | > 10000 | – | – | – | – |
| CN1C(=O)Cc2cc(-c3nc(-c4cccnc4)no3)ccc21 [Compound 377, 1-methyl-5-[3-(pyridin-3-yl)-1,2,4-oxadiazol-5-yl]-2,3-dihydro-1H-indol-2-one] | < 75 | > 316 | < 75 | > 10000 | – | – | – | – |
| CCC1(CC)CC(=O)c2cc(-c3nc(-c4cccc(O)c4)no3)ccc2O1 [Compound 227, 2,2-diethyl-6-[3-(3-hydroxyphenyl)-1,2,4-oxadiazol-5-yl]chroman-4-one] | – | – | – | – | < 75 | < 316 | > 75 | > 10000 |
| CC(C)n1nnc2cc(-c3ncc(-c4ccccc4F)s3)ccc21 [Compound 63, 5-(2-fluorophenyl)-2-(1-isopropyl-1H-benzo[d][1,2,3]triazol-5-yl)thiazole] | – | – | – | – | < 75 | < 316 | < 75 | > 10000 |

— US20230114241A1, “METHODS OF TREATING EPILEPSY USING THE SAME” (Trevena, Inc., priority 2019, published 2023)
